One series can be described thus: physchem. The class given is physicochemical. Conditions: organic solvent or mixture, thermodynamic from solid. An excerpt:
The compounds which are embodiments of the present invention and used in this example were 2mFDBtPDBq (sample 1) and 2mDBTBPDBq-VIII (sample 2). For the methods for synthesizing the compounds, Synthesis Examples 1 and 2 can be referred to. As comparative compounds, 2-[3′-(dibenzothiophen-4-yl)biphenyl-3-yl]dibenzo[f,h]quinoxaline (abbreviation: 2mDBTBPDBq-II) (comparative sample 3) and 2-[3-(dibenzothiophen-4-yl)phenyl]dibenzo[f,h]quinoxaline (abbreviation: 2mDBTPDBq-II) (comparative sample 4) were used in this example. The purity of each compound was 99.9%. The chemical formulae of the compounds are shown below.
The solvents used in this example were the four kinds of solvents: toluene, chloroform, ethyl acetate, and acetone.
A method for examining the solubility of the compound of each sample is described. First, 10 mg of the compound was put into a small bottle and to this was added 1 mL of a solvent. Then, whether the compound was dissolved at room temperature or not was checked. When the compound was not dissolved at room temperature, ultrasonic wave irradiation and then heating using a dryer were performed, so that whether the compound was dissolved or not was checked.
When the compound was not dissolved after heating, the volume of the solvent was increased to 10 mL, so that whether the compound was dissolved at room temperature or not was checked. […]

The nature of series [1]: Thermogravimetry-differential thermal analysis (TG-DTA), 5% weight loss temperature. The class given is physicochemical. Conditions: nitrogen stream 200 mL/min, normal pressure, temperature rising rate 10° C./min. The method, then: Thermogravimetry-differential thermal analysis (TG-DTA) was performed on 2mFDBtPDBq. The measurement was conducted by using a high vacuum differential type differential thermal balance (TG/DTA 2410SA, manufactured by Bruker AXS K.K.). The measurement was conducted under a nitrogen stream (flow rate: 200 mL/min) at normal pressure at a temperature rising rate of 10° C./min. It was found from the relationship between weight and temperature (thermogravimetry) that the 5% weight loss temperature of 2mFDBtPDBq was 495° C.
TG-DTA was performed on 2mDBtBPDBq-VIII. The conditions of the measurement were similar to those in Example 1. It was found from thermogravimetry that the 5% weight loss temperature of 2mDBtBPDBq-VIII was 500° C. or higher.

The source of these data is patent US9837621B2, “Compound, light-emitting element, light-emitting device, electronic device, and lighting device” (Semiconductor Energy Laboratory Co., Ltd., priority 2014, dated 2017).

Bounds are passed on as bounds.

Turning to `CC1(C)c2ccccc2-c2ccc(-c3cccc4c3sc3c(-c5cccc(-c6cccc(-c7cnc8c9ccccc9c9ccccc9c8n7)c6)c5)cccc34)cc21` [2mDBtBPDBq-VIII, 2-(3-{3-[6-(9,9-dimethylfluoren-2-yl)dibenzothiophen-4-yl]phenyl}phenyl)dibenzo[f,h]quinoxaline], the solubility in “physchem” was above 10000 µg/mL. Moreover, the “5% weight loss temperature” value in series [1] is at least 500 °C.

Regarding `CC1(C)c2ccccc2-c2ccc(-c3cccc4c3sc3c(-c5cccc(-c6cnc7c8ccccc8c8ccccc8c7n6)c5)cccc34)cc21` [2mFDBtPDBq, 2-{3-[6-(9,9-dimethylfluoren-2-yl)dibenzothiophen-4-yl]phenyl}dibenzo[f,h]quinoxaline], the solubility in the series “physchem” was above 10000 µg/mL. Also, in series [1], the “5% weight loss temperature” value came to 495 °C.

The term solubility denotes the dissolved amount per volume that the medium holds.
